Test results: patent US10273242B2, “Compound inhibiting activities of BTK and/or JAK3 kinases” (BEIJING HANMI PHARMACEUTICAL CO., LTD., priority 2013, dated 2019)

Columns and labels:
[1] = target: T1, BTK kinase (Homo sapiens, UniProt Q06187); assay: BTK kinase activity inhibition assay (ADP-Glo); format: biochemical; conditions: ATP 50 μM
T1 construct: purchased Invitrogen PV3363
Experimental: The BTK kinase (purchased from Invitrogen, No.: PV3363) was diluted with reaction buffer (40 mM Tris-HCl, pH 7.5; 20 mM MgCl2, 0.1 mg/ml BSA; 1 mM DTT; 2 mM MnCl2) to 2 times of the final concentration (which is 1.1 ng/μL) and added with 5 μL/well to a 96-well plate. The compounds of the present invention were serial diluted with deionized water to four times (i.e., 40 μM, 4 μM, 0.4 μM, 80 nM, 16 nM, 3.2 nM, respectively) of the final concentrations (10 μM, 1 μM, 0.1 μM, 20 nM, 4 nM, 0.8 nM, respectively), and added at 2.5 μL/well to the test wells of the 96-well plate. After incubation at 25° C. for 10 minutes, ATP (50 μM) (purchased from Promega, No.: V9102) and 0.2 μg/μL of Poly E4Y1 (purchased from Sigma, No.: P0275-25MG) were added with 2.5 μL/well and incubated at 25° C. for 120 minutes. After the reaction was completed, 10 μL of the ADP-Glo reagent (ADP-Glo™ kinase assay kit, purchased from Promega, No.: V9102) was added to each well, and reacted at 25° C. for 40 minutes. Then 20 μL of the ADP-Glo kinase detection reagent was added to each well and reacted at 25° C. for 30 minutes. The kinase activity was detected by luminescence using the ADP-Glo kinase assay kit according to the manufacture's instruction, and IC50 values of the compounds of the present invention were calculated.

[2] = target: T2, JAK3 kinase (Homo sapiens, UniProt P52333); assay: JAK3 kinase activity inhibition assay (ADP-Glo); format: biochemical; conditions: ATP 10 μM
T2 construct: purchased SignalChem J03-11G
T2 sequence (P52333 781-1124 limits assumed): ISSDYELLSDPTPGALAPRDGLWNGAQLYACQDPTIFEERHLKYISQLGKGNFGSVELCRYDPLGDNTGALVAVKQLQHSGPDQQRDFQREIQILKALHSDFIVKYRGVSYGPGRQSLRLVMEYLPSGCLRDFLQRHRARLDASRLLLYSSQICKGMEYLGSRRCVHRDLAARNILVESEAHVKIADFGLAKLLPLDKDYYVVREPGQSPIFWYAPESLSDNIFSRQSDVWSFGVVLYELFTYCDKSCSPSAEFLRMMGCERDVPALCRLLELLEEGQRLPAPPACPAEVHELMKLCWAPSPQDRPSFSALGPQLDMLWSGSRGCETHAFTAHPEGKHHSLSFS
Experimental: The JAK3 kinase (purchased from SignalChem, No.: J03-11G) was diluted with reaction buffer (40 mM Tris-HCl, pH 7.5; 20 mM MgCl2, 0.1 mg/ml BSA; 1 mM DTT) to 2 times of the final concentration (which is 0.5 ng/μL) and added with 5 μL/well to a 96-well plate. The compounds of the present invention were serial diluted with deionized water to four times (i.e., 40 μM, 4 μM, 0.4 μM, 80 nM, 16 nM, 3.2 nM, respectively) of the final concentrations (10 μM, 1 μM, 0.1 μM, 20 nM, 4 nM, 0.8 nM, respectively), and added with 2.5 μL/well to the test wells of the 96-well plate. After incubation at 25° C. for 10 minutes, 10 μM of ATP (purchased from Promega, No.: V9102) and 0.2 μg/μL of Poly E4Y1 (purchased from Sigma, No.: P0275-25MG) were added at 2.5 μL/well and reacted at 25° C. for 60 minutes. After the reaction was completed, 10 μL of the ADP-Glo reagent (ADP-Glo™ kinase assay kit, purchased from Promega, No.: V9102) was added to each well and reacted at 25° C. for 40 minutes. Then 20 μL of the ADP-Glo kinase detection reagent was added to each well and reacted at 25° C. for 30 minutes. The kinase activity was detected by luminescence using the ADP-Glo kinase assay kit according to the manufacture's instruction, and IC50 values of the compounds of the present invention were calculated.

T1 sequence (Q06187 whole entry): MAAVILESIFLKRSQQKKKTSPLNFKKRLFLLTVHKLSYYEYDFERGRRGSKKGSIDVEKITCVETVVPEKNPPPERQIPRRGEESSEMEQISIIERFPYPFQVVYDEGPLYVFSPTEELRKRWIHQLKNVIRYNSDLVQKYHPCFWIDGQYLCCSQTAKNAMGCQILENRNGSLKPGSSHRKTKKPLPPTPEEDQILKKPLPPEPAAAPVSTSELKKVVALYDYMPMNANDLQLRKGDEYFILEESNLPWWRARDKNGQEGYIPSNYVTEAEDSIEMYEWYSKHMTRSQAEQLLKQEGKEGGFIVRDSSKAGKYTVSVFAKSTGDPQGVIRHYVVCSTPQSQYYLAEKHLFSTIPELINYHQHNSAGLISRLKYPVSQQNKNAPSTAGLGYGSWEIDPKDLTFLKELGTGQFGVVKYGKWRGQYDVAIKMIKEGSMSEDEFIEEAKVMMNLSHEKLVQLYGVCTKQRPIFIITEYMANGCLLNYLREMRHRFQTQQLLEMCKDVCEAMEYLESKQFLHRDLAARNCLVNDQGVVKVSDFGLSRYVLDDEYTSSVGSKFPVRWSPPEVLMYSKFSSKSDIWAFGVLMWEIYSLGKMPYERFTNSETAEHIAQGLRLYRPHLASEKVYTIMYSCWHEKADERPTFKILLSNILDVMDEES

C=CC(=O)N1CC[C@@H](Nc2nc(Nc3cc(C)ns3)nc3ccsc23)C1 [Example 132, (R)-1-(3-((2-((3-methyl-isothiazol-5-yl)amino)thieno[3,2-d]pyrimidin-4-yl)amino)pyrrolidin-1-yl)prop-2-en-1-one]
IC50 [1]: ≤ 50 nM | IC50 [2]: ≤ 10 nM
